Where two headings read alike, the source gives them in different places.
Legend:
Type in all cases: binding
[1] = target: T1, JAK1 (Homo sapiens, UniProt P23458); assay: Probe-based (AX9989) kinase profiling in Jurkat lysate: JAK1; details: for inhibition at 0.1 µM: screening concentration 0.1 μM
T1 construct: screened for activity against several kinases in Jurkat cells; endogenous in cells; host or cells: Jurkat cell lysate
Summary of the method: (§1)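 Jurkat lysate, HEPES pH 7.5 buffer + 20 mM MnCl2; cpd 15 min RT; AX9989 ATP probe 5 μM final, RT. Trypsin digest, streptavidin capture, LC/MS; % inhibition vs vehicle from labeled-peptide signal.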

[2] = system: AurB or AurC; assay: Probe-based (AX9989) kinase profiling in Jurkat lysate: AurB or AurC; details: for AurB or AurC Inhibition % at indicated screening concentration: screening concentration 1 μM
Summary of the method: as §1

[3] = target: T2, BRD4 bromodomain domain I [BRD4(1)] (Homo sapiens, UniProt O60885); assay: BRD4 bromodomain domain 1 inhibition assay (TR-FRET); details: screening concentration 10 μM
T2 construct: BRD4 bromodomain domain I [BRD4(1)]; purchased Cayman Chemicals
Summary of the method: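 0.5% DMSO, in triplicate, using Cayman BRD4(1) TR-FRET protocol with slight modification. 670/620 nm ratio normalized to 10 μM JQ1, with DMSO control set as 0% inhibition.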

[4] = target: T3, ACK (Homo sapiens, UniProt Q07912); assay: Probe-based (AX9989) kinase profiling in Jurkat lysate: ACK; details: for inhibition at 0.1 µM: screening concentration 0.1 μM
T3 construct: screened for activity against several kinases in Jurkat cells; endogenous in cells; host or cells: Jurkat cell lysate
T3 sequence (Q07912 whole entry): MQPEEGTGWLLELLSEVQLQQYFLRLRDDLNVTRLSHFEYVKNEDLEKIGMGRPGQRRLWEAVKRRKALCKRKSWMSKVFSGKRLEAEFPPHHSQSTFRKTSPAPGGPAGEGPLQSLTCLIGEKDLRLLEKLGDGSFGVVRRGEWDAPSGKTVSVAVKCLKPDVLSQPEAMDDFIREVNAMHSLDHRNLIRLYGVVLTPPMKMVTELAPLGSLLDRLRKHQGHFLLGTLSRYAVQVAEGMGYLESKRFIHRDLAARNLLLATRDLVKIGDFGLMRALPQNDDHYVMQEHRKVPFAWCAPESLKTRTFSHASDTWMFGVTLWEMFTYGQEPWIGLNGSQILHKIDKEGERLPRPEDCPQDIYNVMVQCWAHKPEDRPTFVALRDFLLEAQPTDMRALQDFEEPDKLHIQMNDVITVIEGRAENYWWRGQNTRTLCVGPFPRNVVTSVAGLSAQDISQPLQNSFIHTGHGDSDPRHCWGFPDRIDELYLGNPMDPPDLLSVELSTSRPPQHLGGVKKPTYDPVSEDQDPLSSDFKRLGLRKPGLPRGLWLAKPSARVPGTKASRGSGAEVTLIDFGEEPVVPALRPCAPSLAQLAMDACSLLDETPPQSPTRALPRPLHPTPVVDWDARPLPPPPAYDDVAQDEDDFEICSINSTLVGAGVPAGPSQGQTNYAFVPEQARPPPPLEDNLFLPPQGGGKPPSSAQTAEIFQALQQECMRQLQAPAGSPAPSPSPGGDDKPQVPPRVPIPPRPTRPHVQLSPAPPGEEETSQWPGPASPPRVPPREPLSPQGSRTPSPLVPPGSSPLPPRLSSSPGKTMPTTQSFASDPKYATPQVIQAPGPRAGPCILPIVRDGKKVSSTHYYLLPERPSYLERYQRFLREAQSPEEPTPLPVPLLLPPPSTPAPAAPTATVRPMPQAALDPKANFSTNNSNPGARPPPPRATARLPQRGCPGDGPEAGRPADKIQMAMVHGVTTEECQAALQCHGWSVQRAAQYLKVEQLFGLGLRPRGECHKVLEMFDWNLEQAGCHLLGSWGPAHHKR
Summary of the method: as §1

[5] = target: T4, TAO2 (Homo sapiens, UniProt Q9UL54); assay: Probe-based (AX9989) kinase profiling in Jurkat lysate: TAO2; details: for inhibition at 0.1 µM: screening concentration 0.1 μM
T4 construct: screened for activity against several kinases in Jurkat cells; endogenous in cells; host or cells: Jurkat cell lysate
T4 sequence (Q9UL54 1-1235): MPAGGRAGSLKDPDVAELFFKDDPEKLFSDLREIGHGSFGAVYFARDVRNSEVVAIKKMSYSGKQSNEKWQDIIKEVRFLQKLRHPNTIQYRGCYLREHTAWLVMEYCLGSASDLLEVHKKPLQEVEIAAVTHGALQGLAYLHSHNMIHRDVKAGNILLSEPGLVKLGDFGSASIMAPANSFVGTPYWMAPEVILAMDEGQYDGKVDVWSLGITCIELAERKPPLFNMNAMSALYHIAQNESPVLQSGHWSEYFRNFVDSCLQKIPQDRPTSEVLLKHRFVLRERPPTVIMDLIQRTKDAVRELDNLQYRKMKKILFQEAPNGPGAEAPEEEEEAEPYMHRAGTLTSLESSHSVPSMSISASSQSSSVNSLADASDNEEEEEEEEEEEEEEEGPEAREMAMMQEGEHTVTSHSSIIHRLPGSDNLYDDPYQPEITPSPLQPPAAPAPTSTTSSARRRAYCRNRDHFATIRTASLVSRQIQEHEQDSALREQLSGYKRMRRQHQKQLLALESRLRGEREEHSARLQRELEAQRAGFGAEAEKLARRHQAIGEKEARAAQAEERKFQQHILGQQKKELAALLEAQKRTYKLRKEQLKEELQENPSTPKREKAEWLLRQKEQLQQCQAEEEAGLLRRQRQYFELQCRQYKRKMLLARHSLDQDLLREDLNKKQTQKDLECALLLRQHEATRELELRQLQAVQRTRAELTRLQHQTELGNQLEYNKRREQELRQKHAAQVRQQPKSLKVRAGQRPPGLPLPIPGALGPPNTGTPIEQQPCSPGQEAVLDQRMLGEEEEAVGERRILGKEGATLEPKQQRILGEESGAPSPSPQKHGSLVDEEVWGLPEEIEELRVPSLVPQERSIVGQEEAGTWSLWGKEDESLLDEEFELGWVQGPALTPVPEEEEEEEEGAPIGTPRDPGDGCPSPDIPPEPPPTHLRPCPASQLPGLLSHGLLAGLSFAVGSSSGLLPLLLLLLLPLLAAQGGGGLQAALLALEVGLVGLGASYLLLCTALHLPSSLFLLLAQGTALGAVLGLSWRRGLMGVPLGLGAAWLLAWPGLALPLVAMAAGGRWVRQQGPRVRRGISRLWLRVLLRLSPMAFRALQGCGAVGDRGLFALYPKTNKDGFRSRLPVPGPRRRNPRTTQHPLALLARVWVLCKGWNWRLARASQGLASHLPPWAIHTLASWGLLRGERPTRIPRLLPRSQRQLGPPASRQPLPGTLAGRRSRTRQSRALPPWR
Summary of the method: as §1

[6] = target: T5, ERK5 (Homo sapiens, UniProt Q13164); assay: Probe-based (AX9989 acyl phosphate ATP probe) kinase profiling in Jurkat lysate: ERK5; details: for IC50: Jurkat lysate; for inhibition at 0.1 µM: screening concentration 0.1 μM
T5 construct: screened for activity against several kinases in Jurkat cells; endogenous in cells; host or cells: Jurkat cell lysate
T5 sequence (Q13164 whole entry): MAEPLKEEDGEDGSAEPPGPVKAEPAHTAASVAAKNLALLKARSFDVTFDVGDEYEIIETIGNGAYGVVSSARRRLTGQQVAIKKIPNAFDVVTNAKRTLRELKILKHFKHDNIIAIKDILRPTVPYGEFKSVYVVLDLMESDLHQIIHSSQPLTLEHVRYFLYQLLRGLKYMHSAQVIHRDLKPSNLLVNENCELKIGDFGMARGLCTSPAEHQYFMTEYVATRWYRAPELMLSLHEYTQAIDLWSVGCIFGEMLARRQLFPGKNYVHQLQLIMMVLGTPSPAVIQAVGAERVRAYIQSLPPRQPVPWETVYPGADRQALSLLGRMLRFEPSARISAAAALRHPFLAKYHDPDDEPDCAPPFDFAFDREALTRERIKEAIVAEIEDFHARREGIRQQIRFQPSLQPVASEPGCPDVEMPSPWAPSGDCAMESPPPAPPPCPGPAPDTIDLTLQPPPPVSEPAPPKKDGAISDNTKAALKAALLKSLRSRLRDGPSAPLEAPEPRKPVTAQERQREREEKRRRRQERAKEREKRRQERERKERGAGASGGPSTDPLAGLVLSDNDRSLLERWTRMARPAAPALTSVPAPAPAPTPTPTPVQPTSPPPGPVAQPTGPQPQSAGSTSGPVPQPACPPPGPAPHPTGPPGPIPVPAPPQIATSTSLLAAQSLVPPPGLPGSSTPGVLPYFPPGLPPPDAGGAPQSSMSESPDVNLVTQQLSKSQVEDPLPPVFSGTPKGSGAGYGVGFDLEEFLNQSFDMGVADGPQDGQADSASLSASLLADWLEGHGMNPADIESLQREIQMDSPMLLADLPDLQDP
Summary of the method: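 Gel-filtered Jurkat lysate (5 mg/ml, 20 mM MnCl2) preincubated 15 min at room temperature with compound, then labelled with 5 μM AX9989 acyl phosphate ATP probe. Probe-labelled ERK5 active-site peptides quantified by LC/MS after trypsin digestion and streptavidin capture; IC50 calculated from percent inhibition at the screening concentration.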

[7] = read-out: Kinase inhibition % at indicated screening concentration: JAK1
[8] = read-out: Kinase inhibition % at indicated screening concentration: ACK
[9] = read-out: Kinase inhibition % at indicated screening concentration: TAO2
[10] = calculated from percent inhibition of AX9989 labeling and the screening concentration
[11] = read-out: Kinase inhibition % at indicated screening concentration: ERK5
[12] = screening concentration 1.0 μM, read-out: Kinase inhibition % at indicated screening concentration: JAK1
[13] = screening concentration 1.0 μM, read-out: Kinase inhibition % at indicated screening concentration: ACK
[14] = screening concentration 1.0 μM, read-out: Kinase inhibition % at indicated screening concentration: TAO2
[15] = screening concentration 1.0 μM, read-out: Kinase inhibition % at indicated screening concentration: ERK5
[16] = screening concentration 1 μM, read-out: JAK1 Inhibition % at indicated screening concentration
[17] = screening concentration 1 μM, read-out: ACK Inhibition % at indicated screening concentration
[18] = screening concentration 1 μM, read-out: TAO2 Inhibition % at indicated screening concentration
[19] = calculated from percent inhibition and screening concentration, AX9989 probe
[20] = screening concentration 1 μM, read-out: ERK5 Inhibition % at indicated screening concentration

T1 sequence (P23458 whole entry): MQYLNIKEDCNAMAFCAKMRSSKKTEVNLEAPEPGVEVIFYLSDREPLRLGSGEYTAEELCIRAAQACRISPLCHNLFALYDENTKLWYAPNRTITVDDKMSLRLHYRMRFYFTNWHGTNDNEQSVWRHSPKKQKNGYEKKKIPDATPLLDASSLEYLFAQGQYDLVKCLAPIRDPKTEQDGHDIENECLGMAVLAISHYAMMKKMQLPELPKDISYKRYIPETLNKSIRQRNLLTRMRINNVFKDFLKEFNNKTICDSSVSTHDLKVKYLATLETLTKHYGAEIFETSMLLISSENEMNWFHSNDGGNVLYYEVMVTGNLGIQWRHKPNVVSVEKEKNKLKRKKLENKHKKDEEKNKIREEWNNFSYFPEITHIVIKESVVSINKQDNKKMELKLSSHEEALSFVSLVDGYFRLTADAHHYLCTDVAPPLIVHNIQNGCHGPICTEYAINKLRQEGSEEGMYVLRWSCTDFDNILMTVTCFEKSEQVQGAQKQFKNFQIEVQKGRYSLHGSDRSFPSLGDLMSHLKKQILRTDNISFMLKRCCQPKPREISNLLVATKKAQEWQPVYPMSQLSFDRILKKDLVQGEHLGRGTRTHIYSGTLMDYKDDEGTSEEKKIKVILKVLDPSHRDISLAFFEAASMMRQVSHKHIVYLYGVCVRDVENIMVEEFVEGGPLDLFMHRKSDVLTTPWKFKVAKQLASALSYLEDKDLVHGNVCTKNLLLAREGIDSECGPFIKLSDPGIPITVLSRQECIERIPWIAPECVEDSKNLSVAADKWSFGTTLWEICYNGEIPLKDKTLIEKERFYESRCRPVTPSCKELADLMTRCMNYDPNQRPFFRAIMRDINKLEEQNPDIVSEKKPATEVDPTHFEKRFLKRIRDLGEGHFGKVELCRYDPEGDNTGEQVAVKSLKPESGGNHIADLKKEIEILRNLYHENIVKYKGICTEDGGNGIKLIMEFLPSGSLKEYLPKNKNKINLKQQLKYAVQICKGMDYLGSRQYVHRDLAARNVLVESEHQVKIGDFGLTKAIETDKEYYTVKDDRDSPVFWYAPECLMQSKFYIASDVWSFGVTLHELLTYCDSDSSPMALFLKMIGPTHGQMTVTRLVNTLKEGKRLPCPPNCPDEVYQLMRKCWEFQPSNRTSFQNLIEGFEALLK

CCOc1cc(C(=O)NCCN(CC)CC)ccc1Nc1cc2c(cn1)N(C)C(=O)c1ccccc1N2C [Compound 103]
inhibition at 0.1 µM [1, 7]: ≤ 35% | Kinase inhibition % at indicated screening concentration: AurB or AurC ([2]; screening concentration 0.1 μM): E (E is ≦35%) | inhibition at 10 µM [3]: 70 to 85% | inhibition at 0.1 µM [4, 8]: ≤ 35% | inhibition at 0.1 µM [5, 9]: ≤ 35% | IC50 [6, 10]: ≤ 50 nM | inhibition at 0.1 µM [6, 11]: > 90%

CCOc1cc(C(=O)NCCN2CCCC2)ccc1Nc1cc2c(cn1)N(C)C(=O)c1ccccc1N2C [Compound 105]
inhibition at 1 µM [1, 12]: ≤ 35% | Kinase inhibition % at indicated screening concentration: AurB or AurC ([2]; screening concentration 1.0 μM): E (E is ≦35%) | inhibition at 10 µM [3]: 70 to 85% | inhibition at 1 µM [4, 13]: ≤ 35% | inhibition at 1 µM [5, 14]: ≤ 35% | IC50 [6, 10]: 101 to 500 nM | inhibition at 1 µM [6, 15]: 75 to 90%

Cc1cc(CN2CCCC2)ccc1Nc1cc2c(cn1)N(C)C(=O)c1ccccc1N2C [Compound 106, 5,11-dimethyl-3-(2-methyl-4-(pyrrolidin-1-ylmethyl)phenylamino)-5H-benzo[e]pyrido[3,4-b][1,4]diazepin-10(11H)-one]
inhibition at 1 µM [1, 12]: ≤ 35% | Kinase inhibition % at indicated screening concentration: AurB or AurC ([2]; screening concentration 1.0 μM): E (E is ≦35%) | inhibition at 10 µM [3]: < 70% | inhibition at 1 µM [4, 13]: ≤ 35% | inhibition at 1 µM [5, 14]: 50 to 75% | IC50 [6, 10]: ≤ 50 nM | inhibition at 1 µM [6, 15]: > 90%

CCOc1cc(C(=O)NCCc2ccncc2)ccc1Nc1cc2c(cn1)N(C)C(=O)c1ccccc1N2C [Compound 107]
inhibition at 1 µM [1, 12]: ≤ 35% | Kinase inhibition % at indicated screening concentration: AurB or AurC ([2]; screening concentration 1.0 μM): E (E is ≦35%) | inhibition at 10 µM [3]: < 70% | inhibition at 1 µM [4, 13]: ≤ 35% | inhibition at 1 µM [5, 14]: ≤ 35% | IC50 [6, 10]: > 500 nM | inhibition at 1 µM [6, 15]: 50 to 75%

CCOc1cc(C(=O)N2CCN(CC)CC2)ccc1Nc1cc2c(cn1)N(C)C(=O)c1ccccc1N2C [Compound 108]
inhibition at 1 µM [1, 12]: ≤ 35% | Kinase inhibition % at indicated screening concentration: AurB or AurC ([2]; screening concentration 1.0 μM): E (E is ≦35%) | inhibition at 10 µM [3]: 70 to 85% | inhibition at 1 µM [4, 13]: ≤ 35% | inhibition at 1 µM [5, 14]: ≤ 35% | IC50 [6, 10]: ≤ 50 nM | inhibition at 1 µM [6, 15]: > 90%

CN1C(=O)c2ccccc2N(C)c2cc(Nc3ccc(C(=O)N4CC[C@@H](N(C)C)C4)cc3F)ncc21 [Compound 110]
inhibition at 10 µM ([1]; screening concentration 10.0 μM, read-out: Kinase inhibition % at indicated screening concentration: JAK1): ≤ 35% | Kinase inhibition % at indicated screening concentration: AurB or AurC ([2]; screening concentration 10.0 μM): C (C is >50% to ≦75%) | inhibition at 10 µM [3]: < 70% | inhibition at 10 µM ([4]; screening concentration 10.0 μM, read-out: Kinase inhibition % at indicated screening concentration: ACK): ≤ 35% | inhibition at 10 µM ([5]; screening concentration 10.0 μM, read-out: Kinase inhibition % at indicated screening concentration: TAO2): 50 to 75% | IC50 [6, 10]: ≤ 50 nM | inhibition at 10 µM ([6]; screening concentration 10.0 μM, read-out: Kinase inhibition % at indicated screening concentration: ERK5): > 90%

CCOc1cc(C(=O)N2CCOCC2)ccc1Nc1cc2c(cn1)N(C)C(=O)c1ccccc1N2C [Compound 111]
inhibition at 1 µM [1, 12]: ≤ 35% | Kinase inhibition % at indicated screening concentration: AurB or AurC ([2]; screening concentration 1.0 μM): E (E is ≦35%) | inhibition at 10 µM [3]: > 85% | inhibition at 1 µM [4, 13]: ≤ 35% | inhibition at 1 µM [5, 14]: ≤ 35% | IC50 [6, 10]: ≤ 50 nM | inhibition at 1 µM [6, 15]: ≤ 35%

CCOc1cc(C(=O)N2CC(N3CCCCC3)C2)ccc1Nc1cc2c(cn1)N(C)C(=O)c1ccccc1N2C [Compound 114]
inhibition at 0.1 µM [1, 7]: ≤ 35% | Kinase inhibition % at indicated screening concentration: AurB or AurC ([2]; screening concentration 0.1 μM): E (E is ≦35%) | inhibition at 10 µM [3]: > 85% | inhibition at 0.1 µM [4, 8]: ≤ 35% | inhibition at 0.1 µM [5, 9]: ≤ 35% | IC50 [6, 10]: ≤ 50 nM | inhibition at 0.1 µM [6, 11]: > 90%

CCOc1cc(C(=O)N2CC[C@@H](N(C)C)C2)ccc1Nc1cc2c(cn1)N(C)C(=O)c1ccccc1N2C [Compound 115]
inhibition at 1 µM [1, 12]: ≤ 35% | Kinase inhibition % at indicated screening concentration: AurB or AurC ([2]; screening concentration 1.0 μM): E (E is ≦35%) | inhibition at 10 µM [3]: 70 to 85% | inhibition at 1 µM [4, 13]: ≤ 35% | inhibition at 1 µM [5, 14]: ≤ 35% | IC50 [6, 10]: ≤ 50 nM | inhibition at 1 µM [6, 15]: > 90%

CCOc1cc(C(=O)N2CCC(CN3CCOCC3)CC2)ccc1Nc1cc2c(cn1)N(C)C(=O)c1ccccc1N2C [Compound 120]
inhibition at 1 µM [1, 12]: ≤ 35% | Kinase inhibition % at indicated screening concentration: AurB or AurC ([2]; screening concentration 1.0 μM): E (E is ≦35%) | inhibition at 10 µM [3]: > 85% | inhibition at 1 µM [4, 13]: ≤ 35% | inhibition at 1 µM [5, 14]: ≤ 35% | IC50 [6, 10]: ≤ 50 nM | inhibition at 1 µM [6, 15]: > 90%

CCOc1cc(C(=O)N(CC)CCN(CC)CC)ccc1Nc1cc2c(cn1)N(C)C(=O)c1ccccc1N2C [Compound 122]
inhibition at 1 µM [1, 12]: ≤ 35% | Kinase inhibition % at indicated screening concentration: AurB or AurC ([2]; screening concentration 1.0 μM): E (E is ≦35%) | inhibition at 10 µM [3]: 70 to 85% | inhibition at 1 µM [4, 13]: ≤ 35% | inhibition at 1 µM [5, 14]: ≤ 35% | IC50 [6, 10]: ≤ 50 nM | inhibition at 1 µM [6, 15]: > 90%

CCOc1cc(C(=O)N2CCC(NC(C)C)C2)ccc1Nc1cc2c(cn1)N(C)C(=O)c1ccccc1N2C (stereo not shown) [Compound T4]
inhibition at 1 µM [1, 16]: ≤ 35% | AurB or AurC Inhibition % at indicated screening concentration [2]: E (E is ≦35%) | inhibition at 10 µM [3]: > 85% | inhibition at 1 µM [4, 17]: ≤ 35% | inhibition at 1 µM [5, 18]: ≤ 35% | IC50 [6, 19]: ≤ 50 nM | inhibition at 1 µM [6, 20]: > 90%

CCOc1cc(C(=O)N2C[C@H]3CCN[C@H]3C2)ccc1Nc1cc2c(cn1)N(C)C(=O)c1ccccc1N2C [Compound T5]
inhibition at 1 µM [1, 16]: ≤ 35% | AurB or AurC Inhibition % at indicated screening concentration [2]: E (E is ≦35%) | inhibition at 10 µM [3]: 70 to 85% | inhibition at 1 µM [4, 17]: ≤ 35% | inhibition at 1 µM [5, 18]: ≤ 35% | IC50 [6, 19]: ≤ 50 nM | inhibition at 1 µM [6, 20]: > 90%

— patent US20170008888A1 (KYORIN PHARMACEUTICAL CO., LTD., priority 2014, published 2017)
